Measured values taken from patent US9512178B2, “Neurogenic brain-derived neurotrophic factor peptides” (Research Foundation for Mental Hygiene, Inc., priority 2012, dated 2016).

Assays:
BDNF and TrkB = experiment: Induction of BDNF and TrkB expression after pre-treatment with CHX or K252a; format: cell-based, mouse; conditions: two days of treatment
Description: (§1) Peptides were dissolved in water in serial dilutions of 10 mM, 1 mM, 100 μM and 10 μM from which the necessary amount was added directly to the culture medium to a final concentration of 0.05 μM, 1 μM, or 10 μM. The BDNF (Peprotech, NJ, USA) was used as a reference in concentrations of 20 ng/ml (0.79 nM) and 100 ng/ml (3.95 nM). Cycloheximide (CHX) (Sigma-Aldrich, St Louis, Mo., USA) was used for blocking protein synthesis. CHX original stock was 100 mg/ml (355.4 mM) in DMSO; from a second stock of 35.54 mM in DMSO, the dilutions were made to the final concentrations of 100 μM. The K252a (CALBIOCHEM/EMD) was used to inhibit the TrkB Receptor. From a stock of 100 μM in DMSO, K252a was diluted to a final working concentration of 200 nM. The E18 primary hippocampal cells were pre-treated with CHX or K252a 1 h prior to the addition of the peptides or BDNF and a time course of these treatments for 15 min, 60 min and 2 days was studied.
To evaluate whether the effect of B-5 and B-3 in induction of the expression of BDNF and TrkB was via the activation of the TrkB receptor and required signal transduction via TrkB and new protein synthesis, mouse embryonic E18 cultured hippocampal cells were pre-treated with the protein synthesis inhibitor, cycloheximide (CHX) or the Trk inhibitor K252a for 1 h, and then added Peptide B-5 at a concentration of 0.1 μM (the dose that gave the maximum induction of BDNF expression, FIGS. 5A and B) or BDNF 20 ng/ml as a positive control (FIG. 7C,D). A time course of these treatments was studied with Peptide B-5 or BDNF for 15 min, 60 min and two days.

TrkB receptor = target: T1, TrkB receptor (Mus musculus, UniProt P15209); experiment: TrkB phosphorylation (Tyr 706) and TrkB level in primary E18 hippocampal cells, with or without K252a; format: cell-based; conditions: K252a pretreatment 1 h (200 nM), then BDNF or peptides B-5 or B-3 for 5 min
T1 construct: endogenous in cells; host or cells: primary hippocampal neurons from embryonic day 18 C57BL/6 mice
Description: as §1
(§2) Following treatment in 6-well plates, cells were washed 2× in glucose buffered saline, GBS (5.4 mM KCl, 138 mM NaCl, 22 mM glucose, and 2 mM Na—KPO pH 7.2), and then lysed by 5 min incubation on ice in 100 or 150 μl of ice-cold RIPA buffer (PBS, 1% w/v NP-40 from Fisher Scientific, 0.1% w/v SDS, and 0.5% w/v sodium desoxycholate) containing 1 mM AEBSF (Gold Biotechnology, St. Louis, Mo., USA), 10 μg/ml aprotinin (Sigma-Aldrich, St. Louis, Mo., USA), and 20 μg/ml of leupeptin and pepstatin (US Biochemicals, Cleveland, Ohio, USA), and phosphatase inhibitors: NaF, Na orthovanadate, (3-glycerophosphate, and microcystein (Sigma-Aldrich, St. Louis, Mo., USA). Extracts were prepared by collecting and pooling a minimum of 2 wells by scraping, and lysates were centrifuged at 20,000×g for 10 min at 4° C. Protein concentration of each cell lysate was determined using the BCA kit (Thermo Scientific, Rockford, Ill., USA). The lysates (7.5-20 μg total protein) were separated on 10% SDS-PAGE gels (except for BDNF where 12% gels were employed) and transferred to 0.45 μm PVDF membrane (Pall, Pensacola, Fla., USA) for probing with antibodies as noted. Blots were blocked for 1 hr at 37° C. in 1×TBST (0.05% Tween 20 in TBS) containing 5% w/v blotting grade dry milk (Bio-rad, Hercules, Calif., USA), incubated in primary antibody overnight in blocking buffer at 4° C., washed 3×10 min in TBST at room temperature, followed by incubation with secondary antibody, i.e., peroxidase-conjugated anti-mouse or anti rabbit IgG (Jackson ImmunoResearch Laboratories, West Grove, Pa., USA) diluted in blocking buffer. Blots were washed 3×10 min in TBST and immunoreactive protein bands were visualized with enhanced chemiluminescence (ECL) reagents (Pierce, Rockford, Ill., USA). The ECL films of the blots were scanned and analyzed using Multi Gauge software version 3.0 (Fujifilm, Tokyo, Japan).
The following primary antibodies were used: rabbit polyclonal anti-NFM (1:1000; Chemicon/Millipore, Billerica, Mass., USA); mouse monoclonal anti-NeuN, clone A60 (1:500; Millipore, Billerica, Mass., USA); rabbit polyclonal anti-Tuj-1, (3—III-tubulin (Covance; 1:800, Emeryville, Calif., USA); mouse monoclonal SMI 52 to the adult isoforms of MAP-2, MAP2a,b (1:1000; Covance, Emeryvilly, Calif., USA); rabbit polyclonal anti-Synapsin I (1:2000; Stressgen, Farmingdale, N.Y., USA); rabbit monoclonal anti-PSD95 (1:1000; Cell signaling, Danvers, Mass., USA); anti tau 92e (1:10000); mouse monoclonal anti-BDNF (1:1000; Calbiochem, Gibbstown, N.J., USA); rabbit polyclonal anti-TrkB (total) (1:500; Santa Cruz Biotechnology, Santa Cruz, Calif., USA); rabbit polyclonal anti-pTrkB (Tyr706) (1:400; Santa Cruz Biotechnology, Santa Cruz, Calif., USA), TrkC (1:1000; Cruz Biotechnology, Santa Cruz, Calif., USA); and pTrkY490 (1:500; Upstate USA Inc., Charlottesville, Va., USA). For loading control, the blots were developed with rabbit polyclonal antibody to GAPDH (1:2000; Santa Cruz Biotechnology, Santa Cruz, Calif., USA). […]

[1] = system: E18 primary hippocampal neurons; experiment: Western blots of neuronal markers, densitometry; format: cell-based, mouse; conditions: 5 days
Description: as §2
(§3) The following primary antibodies were used: rabbit polyclonal anti-NFM (1:1000; Chemicon/Millipore, Billerica, Mass., USA); mouse monoclonal anti-NeuN, clone A60 (1:500; Millipore, Billerica, Mass., USA); rabbit polyclonal anti-Tuj-1, (3—III-tubulin (Covance; 1:800, Emeryville, Calif., USA); mouse monoclonal SMI 52 to the adult isoforms of MAP-2, MAP2a,b (1:1000; Covance, Emeryvilly, Calif., USA); rabbit polyclonal anti-Synapsin I (1:2000; Stressgen, Farmingdale, N.Y., USA); rabbit monoclonal anti-PSD95 (1:1000; Cell signaling, Danvers, Mass., USA); anti tau 92e (1:10000); mouse monoclonal anti-BDNF (1:1000; Calbiochem, Gibbstown, N.J., USA); rabbit polyclonal anti-TrkB (total) (1:500; Santa Cruz Biotechnology, Santa Cruz, Calif., USA); rabbit polyclonal anti-pTrkB (Tyr706) (1:400; Santa Cruz Biotechnology, Santa Cruz, Calif., USA), TrkC (1:1000; Cruz Biotechnology, Santa Cruz, Calif., USA); and pTrkY490 (1:500; Upstate USA Inc., Charlottesville, Va., USA). For loading control, the blots were developed with rabbit polyclonal antibody to GAPDH (1:2000; Santa Cruz Biotechnology, Santa Cruz, Calif., USA).
To biochemically study the effect of BDNF peptides in inducing expression of neuronal markers, protein samples were recovered from cells treated with peptides B-5, B-4, B-3, or vehicle for five days. As a positive control, protein samples were collected from cells treated with BDNF at 20 ng/ml (0.79 nM) or 100 ng/ml (3.95 nM) (FIG. 3D, E). Western blots of the cell lysates were developed with antibodies to Synapsin I (presynaptic marker), PSD95 (postsynaptic marker), NeuN (late neuronal marker), NFM (early neuronal marker), MAP2 (dendritic marker), 0-IIItubulin (early neuronal marker), and tau 92e (axonal marker).

BDNF = BDNF expression, Western blot, 5 days treatment; format: cell-based, mouse; conditions: vs control medium
Description: as §2, §3
To investigate the molecular mechanism by which the BDNF peptides promoted neurogenic/neurotrophic activities, the hippocampal primary cultured neurons were treated with the peptides or BDNF for five days and compared with the control medium treated cells.

[2] = system: mouse E18 primary hippocampal neurons; experiment: Toxicity of the peptides: phase contrast morphology and LDH assay, 5 days treatment; format: cell-based; conditions: 1 μM
Source text: To screen these peptides, primary neuronal cell cultures were used from embryonic day 18 (E18) C57BL/6 mouse hippocampus. At the fourth day in vitro (DIV), the culture medium was exchanged with the medium containing the peptides. The primary neuronal cultures were established as taught in the art (see, e.g., Cardenas-Aguayo Mdel, Santa-Olalla et al. 2003, hereby incorporate by reference). Briefly, C57BL/6 time pregnant E18 female mice from Charles River Labs were anesthetized and killed by cervical dislocation following our Institutional Animal Care and Use Committee (IACUC) regulations and approved protocol. Embryos were removed and placed in cold Hibernate A (available from Brain bits, Springfield, Ill., USA), and all of the following steps were performed in ice-cold Hibernate A, under a stereoscopic (dissection) microscope placed in a laminar flow hood. Fetal brains were removed carefully and fore brain were separated. Then, the hippocampus, including the cortex surrounding the area of the hippocampus, was dissected and cut into small pieces using microsurgical scissors. The cut tissue was transferred with number 5 forceps to 15 ml tubes containing 0.1% trypsin in Versene (Invitrogen Life Technologies, Grand Island, N.Y., USA) and incubated for 15 min at 37° C. followed by inactivation with 10% fetal bovine serum (FBS) in Neurobasal complete medium (Neurobasal Medium supplemented with 2×B-27, 0.30% glutamine, and penicillin/streptomycin 0.1 mg/ml and 0.1 U/ml respectively). All medium components were purchased from Invitrogen, Grand Island, N.Y., USA. […]
To study any toxic effect of the peptides, mouse E18 primary hippocampal neurons were treated with the five BDNF peptides individually for up to 5 days at different doses [5 nM, 25 nM, 50 nM (data not shown), 100 nM (0.1 μM), 1000 nM (1 μM), and 10,000 nM (10 μM)]. […] Accordingly, there was no significant change in the viability of cells treated with any of the peptides as evaluated by the lactate dehydrogenase (LDH) assay (see FIG. 2B). […]

[3] = system: primary E18 hippocampal cells; experiment: Rescue of H2O2-induced neurotoxicity (LDH assay); format: cell-based, mouse; conditions: then treatment 24 h
Description: Evaluation of cell death and cell viability was performed using the LDH kit (Promega, Madison Wis., USA), following manufactures instructions. Percentages of cell death and cell viability were plotted separately.
In order to evaluate the potential neuroprotective effect of BDNF peptides, the primary E18 hippocampal cells were challenged with 0, 60, 80 and 100 μM H2O2 for 6 hours, and then cells were washed with culture medium and fresh culture medium was added containing the peptides B-5 or B-3 or BDNF or BDNF plus B-3 (see FIGS. 4A and 4B). After 24 hours, the cell viability was assayed by the LDH method.

[4] = phase III, amyotrophic lateral sclerosis, daily subcutaneous administration; cited from earlier work

T1 sequence (P15209 32-821): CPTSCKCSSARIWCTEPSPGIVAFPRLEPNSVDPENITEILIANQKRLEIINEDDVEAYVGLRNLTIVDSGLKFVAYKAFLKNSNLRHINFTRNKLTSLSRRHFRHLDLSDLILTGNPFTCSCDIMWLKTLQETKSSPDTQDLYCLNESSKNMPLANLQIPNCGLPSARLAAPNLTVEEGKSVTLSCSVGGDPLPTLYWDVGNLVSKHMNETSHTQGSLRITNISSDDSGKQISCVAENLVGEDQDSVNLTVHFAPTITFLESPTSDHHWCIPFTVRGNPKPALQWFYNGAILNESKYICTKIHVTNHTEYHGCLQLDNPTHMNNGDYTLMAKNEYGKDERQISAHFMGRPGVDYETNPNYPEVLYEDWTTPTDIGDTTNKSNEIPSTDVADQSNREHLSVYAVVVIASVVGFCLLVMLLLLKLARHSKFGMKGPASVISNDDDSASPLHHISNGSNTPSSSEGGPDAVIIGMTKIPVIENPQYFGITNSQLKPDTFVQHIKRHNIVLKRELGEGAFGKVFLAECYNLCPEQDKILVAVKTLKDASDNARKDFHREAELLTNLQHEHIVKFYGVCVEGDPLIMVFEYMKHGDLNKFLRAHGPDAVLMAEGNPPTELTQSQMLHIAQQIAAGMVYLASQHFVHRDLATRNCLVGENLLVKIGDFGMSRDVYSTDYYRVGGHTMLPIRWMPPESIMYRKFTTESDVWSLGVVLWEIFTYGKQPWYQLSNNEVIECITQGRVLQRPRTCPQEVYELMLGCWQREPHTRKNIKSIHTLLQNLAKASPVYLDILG

Q: With `C[C@@H]1C[C@@H]([C@H](O)CC2CC(=O)NC(=O)C2)C(=O)[C@@H](C)C1` [CHX, Cycloheximide, reference compound] as the compound, how does the “block of the increase in expression of BDNF caused by BDNF peptides or BDNF” value (BDNF and TrkB; CHX pre-exposure 1 h (100 μM)) read?
A: The value was “can be blocked”.

Q: What does the source list for `COC(=O)[C@@]1(O)C[C@H]2O[C@]1(C)n1c3ccccc3c3c4c(c5c6ccccc6n2c5c31)C(=O)NC4` [Peptide K252a, reference compound]?
A: inhibition of the phosphorylation of TrkB at Tyrosine 706 (TrkB receptor): clear inhibition; block of the increase in expression of BDNF caused by BDNF peptides or BDNF (BDNF and TrkB; K252a pre-exposure 1 h (200 nM)): can be blocked

Q: Which “expression of NeuN (Western blot)” value ([1]; 0.1 μM) does the source give for Ac-D-K-R-H-CONH2 [Peptide B-4] here?
A: The value was “increased the expression of NeuN”.

Q: And the “expression of PSD95 (Western blot)” value ([1]; 0.1 μM)?
A: The value was “significant increment”.

Q: And the “level of tau (92e antibody, Western blot)” value [1]?
A: Its value is “Neither BNDF nor peptides B-3, B-4 or B-5 had any significant effect”.

Q: And the “expression of BDNF (Western blot)” value (BDNF)?
A: The value was “induced the expression of BDNF”.

Q: With Ac-R-R-G-E-CONH2 [Peptide B-1] as the compound, how does the “cell death (LDH assay) vs vehicle treated cells” value [2] read?
A: The value was “significant reduction in cell death”.

Q: With “BDNF: Brain derived neurotrophic factor (Peprotech), used as a reference at 20 ng/ml and 100 ng/ml” as the compound, how does the “NFM expression (Western blot)” value ([1]; 20 ng/ml) read?
A: Its value is “increased NFM expression in a similar way”.

Q: And the “expression of PSD95 (Western blot)” value ([1]; 20 ng/ml)?
A: Its value is “increase”.

Q: What about the “NFM expression (Western blot)” value ([1]; 100 ng/ml) of the same compound?
A: Its value is “increased NFM expression in a similar way”.

Q: What about the “expression of PSD95 (Western blot)” value ([1]; 100 ng/ml) of the same compound?
A: The value was “increase”.

Q: And the “level of tau (92e antibody, Western blot)” value [1]?
A: Its value is “Neither BNDF nor peptides B-3, B-4 or B-5 had any significant effect”.

Q: What about the “cell death (LDH)” value ([3]; 0 μM H2O2 6 h) of the same compound?
A: Its value is “not statistically significant”.

Q: And the “cell viability (LDH)” value ([3]; 0 μM H2O2 6 h)?
A: The value was “increased cell viability significantly”.

Q: And the “cell death (LDH)” value ([3]; 60 μM H2O2 6 h)?
A: The value was “some reduction in cell death”.

Q: What about the “cell viability (LDH)” value ([3]; 60 μM H2O2 6 h) of the same compound?
A: Its value is “increased cell viability significantly”.

Q: What about the “cell death (LDH)” value ([3]; 80 μM H2O2 6 h) of the same compound?
A: The value was “not statistically significant”.

Q: What about the “cell death (LDH)” value ([3]; 100 μM H2O2 6 h) of the same compound?
A: Its value is “not statistically significant”.

Q: What about the clinical benefit [4] of the same compound?
A: Its clinical benefit is “no clinical benefit”.
